PubChem BioAssay AID330 (DTP/NCI, 2004)
“And” between values parts separate entries of the source, which are not always exact repeats. Equal entries are not always repeated. Inconclusive results and toxic doses are left out. The calls were made as follows: active = survival T/C of 150% or more; inactive = T/C below 125% in these data. Peptide text beside a SMILES is read from it.

System: P388 leukemia ip, CD2F1 mice, survival T/C
Experiment: NCI In Vivo Anticancer Drug Screen. Data for tumor model P388 Leukemia (intraperitoneal) in CD2F1 (CDF1) mice
Details: endpoint: median survival time, higher = longer survival
How it was run: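 Mice carrying the transplanted tumor received test compound or vehicle. Survival was recorded in each group, and the value is the treated-group measurement divided by that of the vehicle-treated control group.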

[1] = dose: 6.25 mg/kg/injection, schedule: Q01DX009 (ip), vehicle: Klucel (hydroxypropylcellulose) (HPC)
[2] = dose: 12.5 mg/kg/injection, schedule: Q01DX009 (ip), vehicle: Klucel (hydroxypropylcellulose) (HPC)
[3] = dose: 25.0 mg/kg/injection, schedule: Q01DX009 (ip), vehicle: saline with Tween-80
[4] = dose: 50.0 mg/kg/injection, schedule: Q01DX009 (ip), vehicle: Klucel (hydroxypropylcellulose) (HPC)
[5] = dose: 100.0 mg/kg/injection, schedule: Q01DX009 (ip), vehicle: saline with Tween-80
[6] = dose: 200.0 mg/kg/injection, schedule: Q01DX009 (ip), vehicle: saline with Tween-80
[7] = dose: 50.0 mg/kg/injection, schedule: Q01DX005 (ip), vehicle: saline with Tween-80
[8] = dose: 100.0 mg/kg/injection, schedule: Q01DX005 (ip), vehicle: saline with Tween-80
[9] = dose: 200.0 mg/kg/injection, schedule: Q01DX005 (ip), vehicle: saline with Tween-80
[10] = dose: 60.0 mg/kg/injection, schedule: Q01DX005 (ip), vehicle: saline with Tween-80
[11] = dose: 120.0 mg/kg/injection, schedule: Q01DX005 (ip), vehicle: saline with Tween-80
[12] = dose: 100.0 mg/kg/injection, schedule: Q01DX009 (ip), vehicle: Klucel (hydroxypropylcellulose) (HPC)
[13] = dose: 200.0 mg/kg/injection, schedule: Q01DX009 (ip), vehicle: Klucel (hydroxypropylcellulose) (HPC)

Measured: T/C

ClC(Cl)(Cl)C1=NCc2nnn(Cc3ccccc3)c2N1
inactive: [1] 113 % of control | dose: 6.25 mg/kg/injection, schedule: Q01DX009 (ip), vehicle: saline with Tween-80 118 % of control | [2] 114 % of control | dose: 12.5 mg/kg/injection, schedule: Q01DX009 (ip), vehicle: saline with Tween-80 115 % of control and 117 % of control | [3] 105 % of control and 106 % of control | [4] 104 % of control | [5] 110 % of control | [6] 100 % of control and 113 % of control | dose: 400.0 mg/kg/injection, schedule: Q01DX009 (ip), vehicle: saline with Tween-80 96 % of control

CC(C)CC(NC(=O)C(C)NC(=O)CN)C(=O)O (stereo not drawn) (H-Gly-Ala-Leu-OH; configuration not given here)
inactive: [7] 103 % of control | [8] 107 % of control | [9] 99 % of control

CCOC(=O)C(c1ccccc1)C(CC=C(C)C)(C(C)=O)C(=O)OC (stereo not drawn)
inactive: dose: 100.0 mg/kg/injection, schedule: Q04DX002 (ip), vehicle: saline with Tween-80 103 % of control | dose: 200.0 mg/kg/injection, schedule: Q04DX002 (ip), vehicle: saline with Tween-80 103 % of control | dose: 400.0 mg/kg/injection, schedule: Q04DX002 (ip), vehicle: saline with Tween-80 105 % of control

Cc1[nH]nc(N)c1C(N)=O
inactive: [10] 100 % of control | [11] 99 % of control | dose: 240.0 mg/kg/injection, schedule: Q01DX005 (ip), vehicle: saline with Tween-80 86 % of control

OC1C2CCC(C2)C1CN1CCOCC1 (stereo not drawn)
inactive: dose: 25.0 mg/kg/injection, schedule: Q01DX005 (ip), vehicle: saline with Tween-80 99 % of control | [7] 99 % of control | [8] 99 % of control | [9] 96 % of control

CNC(=O)OCc1c(COC(=O)NC)c(-c2ccc(N)cc2)n(C)c1C
inactive: dose: 6.25 mg/kg/injection, schedule: Q01DX009 (ip), vehicle: distilled water + Tween-80 106 % of control and 92 % of control | dose: 12.5 mg/kg/injection, schedule: Q01DX009 (ip), vehicle: distilled water + Tween-80 119 % of control and 98 % of control | dose: 25.0 mg/kg/injection, schedule: Q01DX009 (ip), vehicle: distilled water + Tween-80 100 % of control and 123 % of control | dose: 50.0 mg/kg/injection, schedule: Q01DX009 (ip), vehicle: distilled water + Tween-80 119 % of control

Fc1c(F)c(-c2c(F)c(F)c(OCC3CO3)c(F)c2F)c(F)c(F)c1OCC1CO1 (stereo not drawn)
inactive: [4] 98 % of control | [12] 103 % of control | [13] 102 % of control

CCCCOC(=O)C1C2CCC(O2)C1C(N)=O (stereo not drawn)
inactive: [10] 99 % of control | [11] 100 % of control

O=C1CCCCCCCCCCCCCCCO1
inactive: [1] 103 % of control | [2] 98 % of control and 115 % of control | dose: 25.0 mg/kg/injection, schedule: Q01DX009 (ip), vehicle: Klucel (hydroxypropylcellulose) (HPC) 104 % of control and 97 % of control | [4] 100 % of control and 120 % of control and 91 % of control | [12] 109 % of control | [13] 111 % of control | dose: 400.0 mg/kg/injection, schedule: Q01DX009 (ip), vehicle: Klucel (hydroxypropylcellulose) (HPC) 109 % of control

O=C(O)C1CC(O)CN1 (stereo not drawn)
inactive: dose: 50.0 mg/kg/injection, schedule: Q01DX005 (ip), vehicle: saline 106 % of control | dose: 100.0 mg/kg/injection, schedule: Q01DX005 (ip), vehicle: saline 106 % of control | dose: 200.0 mg/kg/injection, schedule: Q01DX005 (ip), vehicle: saline 110 % of control

c1ccc(-c2nc3cc4ccccc4cc3nc2-c2ccccc2)cc1
inactive: dose: 50.0 mg/kg/injection, schedule: Q01DX005 (ip), vehicle: Klucel (hydroxypropylcellulose) (HPC) 105 % of control | dose: 100.0 mg/kg/injection, schedule: Q01DX005 (ip), vehicle: Klucel (hydroxypropylcellulose) (HPC) 100 % of control | dose: 200.0 mg/kg/injection, schedule: Q01DX005 (ip), vehicle: Klucel (hydroxypropylcellulose) (HPC) 99 % of control

O=C1CCCSc2ccccc21
inactive: [3] 100 % of control | dose: 50.0 mg/kg/injection, schedule: Q01DX009 (ip), vehicle: saline with Tween-80 94 % of control | [5] 102 % of control | [6] 106 % of control
